Data as given in article PMC4067310, “From Pan-Reactive KV7 Channel Opener to Subtype Selective Opener/Inhibitor by Addition of a Methyl Group” (PLoS ONE, 2014).

What was measured:
[1] = target: T1, KV7.4-L305V (Homo sapiens, UniProt P56696, L305V); experiment: Two-electrode voltage-clamp of mutant KV7.4-L305V in Xenopus laevis oocytes; assay type: cell-based; details: 10 µM SMB-1, +50 mV, n = 6; read-out: current amplitude, % of control
T1 construct: expressed in transfected cells; host or cells: Xenopus laevis oocytes injected with cRNA (pGEM-HE vector)
T1 sequence (P56696 1-695 L305V): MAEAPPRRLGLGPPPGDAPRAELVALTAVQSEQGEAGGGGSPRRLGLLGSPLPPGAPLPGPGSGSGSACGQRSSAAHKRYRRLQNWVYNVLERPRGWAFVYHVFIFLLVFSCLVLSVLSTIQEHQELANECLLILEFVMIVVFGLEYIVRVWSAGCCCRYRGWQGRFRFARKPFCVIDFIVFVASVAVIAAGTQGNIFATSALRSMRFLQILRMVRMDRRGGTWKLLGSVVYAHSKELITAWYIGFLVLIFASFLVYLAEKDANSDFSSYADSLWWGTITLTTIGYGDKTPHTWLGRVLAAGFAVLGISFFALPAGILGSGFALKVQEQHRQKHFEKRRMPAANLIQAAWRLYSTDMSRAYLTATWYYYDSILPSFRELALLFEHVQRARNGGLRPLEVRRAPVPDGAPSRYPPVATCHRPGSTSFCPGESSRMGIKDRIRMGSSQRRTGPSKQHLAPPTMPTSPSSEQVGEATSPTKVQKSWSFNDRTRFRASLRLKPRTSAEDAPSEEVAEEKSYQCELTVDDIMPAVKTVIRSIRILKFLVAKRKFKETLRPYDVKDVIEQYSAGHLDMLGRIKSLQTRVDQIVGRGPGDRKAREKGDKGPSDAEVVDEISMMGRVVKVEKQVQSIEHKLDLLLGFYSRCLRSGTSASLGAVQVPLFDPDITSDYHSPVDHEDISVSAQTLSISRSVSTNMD
Method: Point mutations were introduced using mutated oligonucleotide extension (PfuTurbo Polymerase, Stratagene, La Jolla, CA, USA) from a plasmid template harboring the cDNA of interest, digested with DpnI (Fermentas, St. Leon-Roth, Germany) and transformed into E.coli XL1 Blue cells. The construct was verified by complete DNA sequencing of the cDNA insert. cRNA was prepared from linearized human wild-type (WT) and mutant KV7 channels in the pGEM-HE vector using the T7 m-Message Machine kit (Ambion, Austin, TX, USA) according to the manufacturer's instructions.
Extraction of Xenopus laevis oocytes and injection of cRNA was performed as described previously. Oocytes were kept in Modified Barth's Saline (in mM: 88 NaCl, 1 KCl, 2.4 NaHCO3, 0.41 CaCl2, 0.82 MgSO4, 0.3 Ca(NO3)2, 15 HEPES, pH 7.4 supplemented with 100 U/mL penicillin and 100 µg/mL streptomycin) at 18°C, and currents were recorded after 2-7 days. […]
KV7 currents in Xenopus laevis oocytes were recorded using two-electrode voltage-clamp at room temperature in Ringer buffer (in mM: 115 NaCl, 2.5 KCl, 1.8 CaCl2, 0.1 MgCl2, 10 HEPES, pH 7.4) as described previously. Data was acquired using pCLAMP 10.2 software (Molecular Devices, CA, USA) and analyzed using pCLAMP 10.2 and GraphPad Prism 4.0 (GraphPad Software Inc., CA, USA). […]

[2] = Visual inspection of solution in Ringer buffer for precipitation; assay type: physicochemical
Method: SMB-1 was dissolved in dimethyl sulfoxide (DMSO) to obtain a concentrated stock solution. On the day of experiments the stock solution was thawed and diluted in Ringer buffer to the final concentrations. A concentration of 10 µM SMB-1 was used unless indicated otherwise. The final DMSO concentration never exceeded 0.1%.
To determine the potency of SMB-1 on KV7.2 the compound was tested at four concentrations (0.4, 2, 10 and 50 µM). […] The current amplitude in percentage of control at +50 mV was plotted against the logarithm of the concentration.

remaining activity at 10 µM [1]: 101 ± 10.3% | concentration above which the drug precipitated [2]: above 50 µM
Structure (SMILES): C[C@@H](c1ccc2c(c1)N(CC1CC1)CCO2)N(C)C(=O)/C=C/c1ccccc1F [SMB-1, (E)-N-[(S)-1-(4-Cyclopropylmethyl-3,4-dihydro-2H-1,4-benzoxazin-6-yl)-ethyl]-3-(2-fluoro-phenyl)-N-methyl-acrylamide]
